Results from US10561704B2, “Compositions and methods for treating neuropsychiatric disorders using an endothelin-B receptor agonist” (MIDWESTERN UNIVERSITY, priority 2013, dated 2020).
Marks after values point to notes of the source that are not given here. *1 amine or outer side, *2 acyl side, *3 side chain or, on linkers, in order; H or OH if unused. Where no end group is shown, it is not given here. Suc = O=C(CCC(=O)[*:2])[*:1]

Columns and labels:
[1] = system: middle cerebral artery occluded rats; assay: Neurological deficit and motor function post middle cerebral artery occlusion; format: in vivo; settings: for Distance Traveled (cm) / Foot Fault Error (%) / Grip Test (6 point scale) / Neurological Evaluation (6 point scale) / Rota Rod Duration / Vertical Breaks: MCAO rats
Protocol: Effect of IRL-1620 on neurological deficit following focal cerebral ischemia: In a preliminary study, the effect of selectively activating ETB receptors by IRL-1620 following permanent middle cerebral artery occlusion in rats was determined.

[2] = system: middle cerebral artery occluded rats; assay: Infarct volume and edema 7 days post middle cerebral artery occlusion; format: in vivo
Protocol: FIG. 12: Two mm coronal sections of brains stained with TTC to visualize the infarct area 7 days post middle cerebral artery occlusion (red indicates normal tissue and white indicates infarct tissue). Representative slices from groups are shown. IRL-1620 (5 μg/kg, IV) or isotonic saline (1 ml/kg, IV) was injected at 2, 4, and 6 hr post MCAO. BQ-788 (1 mg/kg, IV) was administered once 15 min prior to the first injection of IRL-1620 or vehicle.

[3] = system: Aβ induced oxidative stress in the rat brain; assay: Oxidative stress markers (MDA, GSH, SOD) in brains of Aβ treated non-diabetic and diabetic rats; format: in vivo, Sprague-Dawley rats; settings: for Brain malondialdehyde (MDA) level: IRL-1620 3 μg i.c.v. daily 14 days
Protocol: Male Sprague-Dawley rats (Harlan, Indianapolis, Ind.) weighing 280-310 g were allowed to acclimate for at least 4 days before use. Animals were housed in a room with controlled temperature (23±1° C.), humidity (50±10%), and light (6:00 A.M. to 6:00 P.M.). Food and water were available continuously. Animal care and use for experimental procedures were approved by the Institutional Animal Care and Use Committee (IACUC) of Midwestern University. All anesthetic and surgical procedures were in compliance with the guidelines established by the IACUC of Midwestern University.
Amyloid-β (1-40) (Tocris Bioscience, Ellisville, Mo., USA), IRL-1620 [N-Succinyl-[Glu9, Ala11,15] endothelin 1] (American Peptide Co, Inc., Sunnyvale, Calif., USA) and BQ788 (American Peptide Co, Inc., Sunnyvale, Calif., USA) were dissolved in sterile saline and all the solutions were freshly prepared before injections. Ketamine (Butler Animal Health Supply, Dublin, Ohio, USA) was administered at a dose of 100 mg/kg, intraperitoneally (i.p.), and xylazine (Lloyd Laboratories, Shenandoah, Iowa, USA) was administered at a dose of 10 mg/kg, i.p. Rats were anesthetized with ketamine (100 mg/kg) and xylazine (10 mg/kg) and a lateral cerebral ventricle was cannulated by placing the rat in a stereotaxic (David Kopf Instruments, Tujunga, Calif., USA) instrument and fixing the cannula (coordinates: 1.0 mm lateral, 1.5 mm caudal to bregma and 4.0 mm deep from the bone). Cannula (Plastics One, Roanoke, Va., USA) was anchored with dental acrylic to three screws placed in the skull. The animals were allowed to recover from surgery for at least seven days. After 7 days, rats were treated with vehicle, Aβ (1-40), ETB receptor agonist and/or antagonist in the lateral cerebral ventricles using the implanted cannula. Vehicle, Aβ or ETB receptor agonist and antagonist were injected in a volume of 5 μl over a period of 5 minutes. Aβ (1-40) was used because it is highly soluble compared to Aβ (1-42) and induces endothelial dysfunction of both cerebral and systemic blood vessels in addition to memory deficit (Nitta et al., 1994; Niwa et al., 2000; Smith et al., 2004; Weller et al., 1998). Agents were delivered using 10 μl Hamilton syringe and agent treatments were carried out individually using separate 10 μl syringe. IRL-1620 was administered 1 hour after Aβ injection whereas BQ788 was administered 15 minutes prior to IRL-1620 injection. At the end of the experiment, placement of cannula was confirmed by injecting methylene blue dye (5 μl) and observing the site and extent of staining. All experiments were performed on day 15 (Briyal et al., 2011). Water maze testing was performed from day 15 to day 19 after which animals were euthanized. Animals used for oxidative stress measurements were euthanized on day 15 without being subjected to any behavioral testing. Diabetes mellitus type 2 was induced in rats belonging to the diabetic group by administering freshly prepared streptozotocin at the dose of 45 mg/kg, i.p. Streptozotocin was dissolved in 0.01 M sodium citrate buffer of pH 4.3. On day 3, blood glucose was obtained from the rat-tail and tested for hyperglycemia using the SureStep Complete Blood Glucose monitor kit. Rats with blood glucose levels above 11.1 mM were considered diabetic. Diabetic and non-diabetic animals were randomly divided into five groups (6 rats per group) (i) Sham, (ii) Aβ+Vehicle, (iii) Aβ+IRL-1620, (iv) Aβ+BQ788 (v) Aβ+BQ788+IRL-1620. Aβ (1-40) was administered intracerebroventricularly (i.c.v.) (20 μg in 3 equally divided doses i.e. 6.67 μg were injected 3 times for a total of 20 μg dose) on day 1, 7, and 14. Specific ETB receptor agonist, IRL-1620 (3 μg) and specific ETB receptor antagonist, BQ788 (10 μg) were administered i.c.v. daily for 14 days starting from day 1 of Aβ injection. The doses of IRL-1620 and BQ788 were selected on the basis of previous studies conducted in our laboratory (Leonard et al., 2011). […]

[4] = system: middle cerebral artery occluded rats; assay: 7 day survival following focal cerebral ischemia (MCAO); format: in vivo
Protocol: FIG. 13: Effect of ETB receptor agonist, IRL-1620, in presence and absence of BQ788 on 7 day survival of rats undergoing either sham surgery or middle cerebral artery occlusion.
Effect of IRL-1620 on 7 day survival of rats following focal cerebral ischemia: Studies were also conducted to determine the effect of stimulating ETB receptors using a selective agonist, IRL-1620, in rats with middle cerebral artery occlusion (MCAO). […] However, MCAO rats in the vehicle treated group presented with 38% mortality by 7th day. […] Preliminary results and supporting literature have prompted the investigation of the mechanism involved in neuroprotective and neurorestorative effects of stimulating ETB receptors in rats with cerebral ischemia.

[5] = Aβ treated diabetic rats, day 15
[6] = Aβ treated non-diabetic rats, day 15

Compound | Distance Traveled (cm) ([1]; Baseline) | Foot Fault Error (%) ([1]; Baseline) | Grip Test (6 point scale) ([1]; Baseline) | Neurological Evaluation (6 point scale) ([1]; Baseline) | Rota Rod Duration ([1]; Baseline) [s] | Vertical Breaks ([1]; Baseline) | Distance Traveled (cm) ([1]; Day 1) | Foot Fault Error (%) ([1]; Day 1) | Grip Test (6 point scale) ([1]; Day 1) | Neurological Evaluation (6 point scale) ([1]; Day 1) | Rota Rod Duration ([1]; Day 1) [s] | Vertical Breaks ([1]; Day 1) | Distance Traveled (cm) ([1]; Day 4) | Foot Fault Error (%) ([1]; Day 4) | Grip Test (6 point scale) ([1]; Day 4) | Neurological Evaluation (6 point scale) ([1]; Day 4) | Rota Rod Duration ([1]; Day 4) [s] | Vertical Breaks ([1]; Day 4) | Distance Traveled (cm) ([1]; Day 7) | Foot Fault Error (%) ([1]; Day 7) | further results
Suc-Asp-Glu-Glu-Ala-Val-Tyr-Phe-Ala-His-Leu-Asp-Ile-Ile-Trp (Suc-DEEAVYFAHLDIIW) [IRL-1620] | 5073 ± 334 | 4.05 ± 1.31 | 3.86 ± 0.46 | 0 ± 0 | 113.29 ± 8.34 | 61.50 ± 4.94 | 1611 ± 325 | 18.85 ± 6.48 % | 2.71 ± 0.52 | 1.29 ± 0.36 | 78.71 ± 22.59 | 12.75 ± 4.76 | 2898 ± 451 | 14.00 ± 3.66 % | 2.33 ± 0.58 | 0.67 ± 0.22 | 97.33 ± 2.08 | 26.33 ± 2.08 | 3472 ± 732 | 8.28 ± 1.09 % | Grip Test (6 point scale) ([1]; Day 7): 3.33 ± 0.22; Neurological Evaluation (6 point scale) ([1]; Day 7): 0.67 ± 0.22; Rota Rod Duration ([1]; Day 7): 123.67 ± 7.28 s; Vertical Breaks ([1]; Day 7): 34.33 ± 3.78; Neurological and motor function tests ([1]; preliminary study, 24 hours after permanent MCAO, vs vehicle-treated): significant improvement; Edema: infarcted hemisphere larger than non-infarcted hemisphere ([2]; MCAO 7 days): 1.51±1.81%; Infarct volume ([2]; MCAO for 7 days, IRL-1620 5 μg/kg IV at 2, 4, 6 hr post MCAO): 54.06±14.12 mm^3; Reduction of infarct volume ([2]; chronic study, 1 week (Leonard et al., 2012)): 69.49%; Brain malondialdehyde (MDA) level [3, 5]: 315.09±5.25 nmol/g wet tissue; Brain reduced glutathione (GSH) level [3, 5]: 166.42±6.63 μg/g wet tissue; Brain superoxide dismutase (SOD) level [3, 5]: 21.4±1.65 U/mg protein; Brain malondialdehyde (MDA) level [3, 6]: 278.47±8.55 nmol/g wet tissue; Brain reduced glutathione (GSH) level [3, 6]: 192.74±6.26 μg/g wet tissue; Brain superoxide dismutase (SOD) level [3, 6]: 22.26±1.16 U/mg protein; Mortality during 7 day observation [4]: no mortality
CCCC[C@@H](NC(=O)[C@@H](Cc1cn(C(=O)OC)c2ccccc12)NC(=O)[C@H](CC(C)(C)C)NC(=O)N1[C@H](C)CCC[C@@H]1C)C(=O)O [BQ788, reference compound] | 5141 ± 285 | 5.96 ± 1.75 | 3.33 ± 0.33 | 0 ± 0 | 102.00 ± 5.14 | 55.17 ± 3.74 | 1168 ± 417 | 52.12 ± 11.93*^@ % | 0.67 ± 0.33*^@ | 3.00 ± 0.58*^@ | 37.83 ± 20.87 | 5.33 ± 2.47 | 1246 ± 410 | 68.89 ± 12.27*^@ % | 0.33 ± 0.24 | 3.33 ± 0.62*^@ | 37.67 ± 14.92 | 4.33 ± 1.52 | 2280 ± 836 | 75.00 ± 17.67*^@ % | Grip Test (6 point scale) ([1]; Day 7): 1.67 ± 0.62; Neurological Evaluation (6 point scale) ([1]; Day 7): 3.00 ± 0.82*^@; Rota Rod Duration ([1]; Day 7): 49.67 ± 17.56 s; Vertical Breaks ([1]; Day 7): 11.00 ± 3.97; Edema ([2]; MCAO 7 days, BQ-788 followed by IRL-1620): 17.97±5.17%; Edema ([2]; MCAO 7 days, BQ-788 followed by vehicle): 17.02±3.17%; Infarct volume ([2]; MCAO 7 days, BQ-788 given with either vehicle or IRL-1620): did not reduce; Brain superoxide dismutase (SOD) level ([3]; Aβ treated diabetic rats, pretreated with BQ788 prior to IRL-1620): 16.52±0.45 U/mg protein; Brain superoxide dismutase (SOD) level ([3]; Aβ treated non-diabetic rats, pretreated with BQ788 prior to IRL-1620): 15.32±0.44 U/mg protein; IRL-1620 induced change in MDA levels ([3]; Aβ treated rats, BQ788 administered prior to IRL-1620): blocked; Brain reduced glutathione (GSH) level ([3]; Aβ treated rats, pretreatment with BQ788 before IRL-1620, diabetic status not stated): 81.2±5.49 μg/g wet tissue; Mortality during 7 day observation [4]: 25%
